Experimental data as given in ChEMBL document CHEMBL1201862, “PubChem BioAssay data set” (2004).
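Compound exposure: 48 hours, 5 concentrations, 96-well plates. Abbreviation: GI50, concentration required for 50% inhibition of growth.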 Active and inactive are the calls of the source. Rule as the data show it: active = GI50 up to about 1.1 µM and inactive = higher.

How the values were obtained:
Test in all cases: growth of human tumour cells (NCI), 48 h
[1] = test system: MDA-N
[2] = test system: SNB-78
[3] = test system: HOP-18
[4] = test system: DLD-1
[5] = test system: RXF 631
[6] = test system: XF498
[7] = test system: DMS-114
[8] = test system: KM-20L2
[9] = test system: BT-549

SMILES | GI50 [1] | GI50 [2] | GI50 [3] | GI50 [4] | GI50 [5] | GI50 [6] | GI50 [7] | GI50 [8] | GI50 [9]
Oc1cc(-n2cccn2)c(O)cc1-n1cccn1 | 17.6 µM (inactive) | 34.8 µM (inactive) | 67.9 µM (inactive) | 32.6 µM (inactive) | > 60.8 µM (inactive) | 16.3 µM (inactive) | 26.4 µM (inactive) | > 85.7 µM (inactive) | 18.7 µM (inactive)
CCC/C(=N\NC(=O)c1cc2ccccc2cc1O)C(CC)C(=O)CCC(=O)N(Cc1ccccc1)Cc1ccccc1 (configuration not stated) |  | > 100 µM (inactive) | 11 µM (inactive) | 58.1 µM (inactive) | 38.1 µM (inactive) |  | 26.3 µM (inactive) | 43 µM (inactive) | 
NNC(=O)N/N=C(/CC1(O)C(=O)Nc2ccc(Br)cc21)c1ccccc1 (configuration not stated) |  | 34.5 µM (inactive) |  | 35.9 µM (inactive) | 38.6 µM (inactive) | 18.9 µM (inactive) |  | 27.9 µM (inactive) | 
O=C(CC(=O)c1ccc([N+](=O)[O-])cc1)C(=O)Nc1nccs1 |  | > 100 µM (inactive) | > 100 µM (inactive) | > 100 µM (inactive) | > 100 µM (inactive) | > 100 µM (inactive) | > 40.5 µM (inactive) | > 100 µM (inactive) | 
CC(=O)/C=C\C(=O)NNS(=O)(=O)c1ccc(C)cc1 |  | > 100 µM (inactive) |  | > 100 µM (inactive) | > 100 µM (inactive) | > 100 µM (inactive) |  | > 100 µM (inactive) | 
COC(=O)C(C#N)C1NC(=O)c2ccccc21 (configuration not stated) |  | > 100 µM (inactive) | > 100 µM (inactive) | > 100 µM (inactive) | > 100 µM (inactive) |  | > 100 µM (inactive) | > 100 µM (inactive) | 
CCCN(CCCCC(NC(C)=O)C(=O)NCc1ccccc1)C(=O)NC (configuration not stated) |  | > 100 µM (inactive) |  | > 100 µM (inactive) | > 100 µM (inactive) | > 100 µM (inactive) | > 100 µM (inactive) | > 100 µM (inactive) | 
BrC/C=C/C[P+](c1ccccc1)(c1ccccc1)c1ccccc1 |  | 21 µM (inactive) | 67 µM (inactive) |  | > 100 µM (inactive) | 11.1 µM (inactive) | 27.5 µM (inactive) | 27.2 µM (inactive) | 
Cc1c(N)nc(C(CC(N)=O)NCC(N)C(N)=O)nc1C(=O)NC(C(=O)NC(C)C(O)C(C)C(=O)NC(C(=O)NCCc1nc(-c2nc(C(=O)NCCCNCCCCN)cs2)cs1)C(C)O)C(OC1OC(CO)C(O)C(O)C1OC1OC(CO)C(O)C(OC(N)=O)C1O)c1c[nH]cn1 (configuration not stated) |  | > 10 µM (inactive) | > 10 µM (inactive) | > 10 µM (inactive) | 0.0274 µM (active) | 0.0413 µM (active) | 1.85 µM (inactive) | > 10 µM (inactive) | 
CC1(C)OC(=O)C(c2ccsc2)C(=O)O1 |  | > 100 µM (inactive) | > 100 µM (inactive) | > 100 µM (inactive) | > 100 µM (inactive) | > 100 µM (inactive) | > 100 µM (inactive) | > 100 µM (inactive) | 
C=C1C(OC(C)=O)CC(OC(C)=O)C2(C)C(OC(C)=O)C(OC(C)=O)C3=C(C)C(OC(=O)/C=C/c4ccccc4)CC(C(OC(C)=O)C12)C3(C)C (configuration not stated) |  | 38.8 µM (inactive) | 51.1 µM (inactive) | > 100 µM (inactive) | 51.2 µM (inactive) |  | > 100 µM (inactive) | > 100 µM (inactive) | 
CN(C)CCCNc1ccc2nnn3c4ccc([N+](=O)[O-])cc4c(=O)c1c23 | 2.09 µM (inactive) | 2.08 µM (inactive) | 0.729 µM (active) | 0.931 µM (active) | 0.723 µM (active) | 1.5 µM (inactive) | 1.89 µM (inactive) | 0.745 µM (active) | 5.26 µM (inactive)
CCc1ccccc1NC(=O)c1cccc([N+](=O)[O-])c1O |  | 37.8 µM (inactive) | 66.5 µM (inactive) | 26.7 µM (inactive) | 23.7 µM (inactive) | 20.4 µM (inactive) | 17.2 µM (inactive) | 24.7 µM (inactive) | 
CN(C)Cc1cc(/C(=C(\C#N)c2ccccc2)c2ccc(O)cc2)ccc1O |  | 32.1 µM (inactive) | 19.9 µM (inactive) | 20.8 µM (inactive) | 17.8 µM (inactive) |  | 15.1 µM (inactive) | 20.4 µM (inactive) | 
